From patent US20260184675A1, “CHIRAL ISOMERIC SULFITE COMPOUND AND APPLICATION THEREOF” (Chengdu Hanova BioSciences Co., Ltd, priority 2024, published 2026)

Experiments:
[1] = test system: pest eggs of Tetranychus cinnabarinus; assay: Effect on hatching of pest eggs of Tetranychus cinnabarinus, leaf disc method; type: in vivo; details: for Hatching rate (%): 7 days after insecticide delivery; for inhibitory effect on the hatching of pest eggs of Tetranychus cinnabarinus (in words): 1 ppm
Procedure: • (1) Preparation of leaf discs containing eggs: 20 female adult mites of Tetranychus cinnabarinus were transferred onto leaf discs of Vicia faba with a diameter of 2.0 cm (with wetted filter paper at the bottom), then covered it with a lidded culture dish and cultivated under moisturizing conditions, the adult mites were removed within 36 hours and microscopic examination and counting were performed on leaf discs containing eggs. • (2) Investigation of egg population base: Before pesticide soaking, a microscopic examination was conducted on the egg basic number of each leaf disc, with 2 replicates set for each treatment. • (3) Pesticide soaking treatment: The leaf butterflies loaded with mite eggs were soaked in clear water and sulfite compounds for 10 seconds, respectively, then taken out and cultivated under moisturizing conditions. Each treatment should be repeated for no less than 3 times. • (4) Cultivation and observation: The […] were cultivated under normal conditions. Five days after insecticide delivery, the hatching status of mite eggs was investigated. • Note: The temperature and humidity conditions of the constant temperature and humidity incubator after the treatment should be controlled so as to avoid excessive temperature differences, which may cause generation and dripping of condensate water in the culture dish, resulting in abnormal death of eggs due to soaking in water; it is also necessary to ensure sufficient strong ambient light, without directing irradiating the leaves. • (5) Survey of Results: The experimental materials of each treatment group were regularly hydrated and moisturized, and the hatching of eggs was observed. On the 7th day after insecticide delivery, the number of hatched eggs for each treatment was recorded, and the survey of results was recorded in the original notebook. According to the experimental requirements and characteristics of agents, the survey time can be shortened or extended. • 1) Surveying and recording the number of hatched eggs for each treatment. • 2) Photographing and recording whether there was any pesticide damage to the leaf discs of Vicia faba. • 3) Recording the developmental status of experimental mite eggs, behavior status of nymph mites, including abnormal phenomena such as delayed or stopped development of mite eggs, difficulty in breaking hull for nymph mites, or painful struggles after hatching, etc. • (6) Calculation method: Based on the survey data, the prevention and control effect of each treatment was calculated according to the following formula, and the calculation results were kept to two decimal places. [formula] [formula] [table]

[2] = test system: eggs of Spodoptera litura; assay: Effect on hatching of eggs of Spodoptera litura, egg piece soaking; type: in vivo; details: 500 ppm; for Hatching rate (%), Replicate 1 / Hatching rate (%), Replicate 2 / Hatching rate (%), Replicate 3 / Number of unhatched larvae 4 days after insecticide delivery, Replicate 1 / Number of unhatched larvae 4 days after insecticide delivery, Replicate 2 / Number of unhatched larvae 4 days after insecticide delivery, Replicate 3: Spodoptera litura eggs; for Hatching rate (%), Replicate 1 / Hatching rate (%), Replicate 2 / Hatching rate (%), Replicate 3: 4 days after delivery; for Number of unhatched larvae 4 days after insecticide delivery, Replicate 1 / Number of unhatched larvae 4 days after insecticide delivery, Replicate 2 / Number of unhatched larvae 4 days after insecticide delivery, Replicate 3: soaked 10 minutes
Procedure: • (1) Preparation of paper containing eggs: the egg mass was cut into small pieces, each containing about 60 eggs, soaked in a preformulated test agent for 10 minutes together with paper for egg raising (concentration of each compound of 500 ppm). After taken out, absorbent paper was used to absorb the excess solution adhered to the paper for egg raising and egg pieces. (2) Cultivation: Each egg piece was separately placed in a glass test tube (5.0 cm in height, 2.5 cm in diameter, the same below), which was sealed with plastic paper punctured with fine holes using insect needles and cultivated in an artificial climate chamber at a temperature of (24±1° C.), a relative humidity of (80±10) %, and a photoperiod of L:D=12:12. When the eggs developed until they were about to hatch, castor leaves with a diameter of about 3 cm were added for feeding the hatching larvae; • (3) Observation: the number of hatched and unhatched eggs per egg piece was checked and recorded, and the hatching rate of eggs was calculated according to the formula. Each treatment was repeated for 3 times. • (4) Survey of results: The experimental materials of each treatment group were regularly hydrated and moisturized, and the hatching of eggs was observed. On the 4th day after insecticide delivery, the number of hatched eggs for each treatment was recorded, and the survey of results was recorded in the original notebook. According to the experimental requirements and characteristics of agents, the survey time can be shortened or extended. • 1) Surveying and recording the number of hatched eggs for each treatment. • 2) Recording the developmental status of experimental eggs of Spodoptera litura, behavior status of nymphs, including abnormal phenomena such as delayed or stopped development of eggs of Spodoptera litura, etc. • (5) Calculation method: Based on the survey data, the prevention and control effect of each treatment was calculated according to the following formula, and the calculation results were kept to two decimal places. [formula] [formula]

[3] = test system: Magnaporthe grisea; type: cell-based; details: 100 ppm; for Average antifungal rate (%) / Antifungal rate of Magnaporthe grisea (%), Replicate 1 / Antifungal rate of Magnaporthe grisea (%), Replicate 2 / Antifungal rate of Magnaporthe grisea (%), Replicate 3: 96-well plate; for Average antifungal rate (%): average of 3 replicates

| Structure (SMILES) | Hatching rate (%) ([1]; 0.25 mg/L, Replicate 1) | Hatching rate (%) ([1]; 0.25 mg/L, Replicate 2) | Number of hatched larvae 7 days after insecticide delivery ([1]; 0.25 mg/L, Replicate 1) | Number of hatched larvae 7 days after insecticide delivery ([1]; 0.25 mg/L, Replicate 2) | Hatching rate (%) ([1]; 0.5 mg/L, Replicate 1) | Hatching rate (%) ([1]; 0.5 mg/L, Replicate 2) | Number of hatched larvae 7 days after insecticide delivery ([1]; 0.5 mg/L, Replicate 1) | Number of hatched larvae 7 days after insecticide delivery ([1]; 0.5 mg/L, Replicate 2) | Hatching rate (%) ([1]; 1 mg/L, Replicate 1) | Hatching rate (%) ([1]; 1 mg/L, Replicate 2) | Number of hatched larvae 7 days after insecticide delivery ([1]; 1 mg/L, Replicate 1) | Number of hatched larvae 7 days after insecticide delivery ([1]; 1 mg/L, Replicate 2) | inhibitory effect on the hatching of pest eggs of Tetranychus cinnabarinus (in words) [1] | inhibitory activity on the hatching of eggs of Spodoptera litura (in words) [2] | inhibitory rate against Magnaporthe grisea (in words) [3] | Average antifungal rate (%) [3] [%] | Antifungal rate of Magnaporthe grisea (%), Replicate 1 [3] [%] | Antifungal rate of Magnaporthe grisea (%), Replicate 2 [3] [%] | Antifungal rate of Magnaporthe grisea (%), Replicate 3 [3] [%] | further results |
| --- | --- | --- | --- | --- | --- | --- | --- | --- | --- | --- | --- | --- | --- | --- | --- | --- | --- | --- | --- | --- |
| C[C@H](COS(=O)OCCF)Oc1ccc(Cl)cc1Cl (stereo partly drawn) [1-(R,R)] | 45.45 | 45.10 | 36 | 28 | 4.26 | 5.56 | 45 | 68 | 0.00 | 0.00 | 56 | 62 | excellent inhibitory effects | good inhibitory activities | strong inhibitory rate | 98.96 | 99.41 | 99.12 | 98.34 | Hatching rate (%), Replicate 1 ([2]; listed as 1-(R, R)): 22.39%; Hatching rate (%), Replicate 2 ([2]; listed as 1-(R, R)): 21.05%; Hatching rate (%), Replicate 3 ([2]; listed as 1-(R, R)): 23.73%; Number of unhatched larvae 4 days after insecticide delivery, Replicate 1 ([2]; listed as 1-(R, R)): 47; Number of unhatched larvae 4 days after insecticide delivery, Replicate 2 ([2]; listed as 1-(R, R)): 45; Number of unhatched larvae 4 days after insecticide delivery, Replicate 3 ([2]; listed as 1-(R, R)): 45 |
| C[C@H](COS(=O)OCCF)Oc1ccc(Cl)cc1Cl (stereo partly drawn) [1-(R,S)] | 74.51 | 76.47 | 13 | 14 | 43.66 | 48.98 | 40 | 25 | 4.69 | 6.67 | 61 | 42 |  |  | strong inhibitory rate | 81.91 | 75.86 | 83.08 | 86.80 | Hatching rate (%), Replicate 1 ([2]; listed as 1-(R, S)): 64.18%; Hatching rate (%), Replicate 2 ([2]; listed as 1-(R, S)): 61.40%; Hatching rate (%), Replicate 3 ([2]; listed as 1-(R, S)): 60.34%; Number of unhatched larvae 4 days after insecticide delivery, Replicate 1 ([2]; listed as 1-(R, S)): 25; Number of unhatched larvae 4 days after insecticide delivery, Replicate 2 ([2]; listed as 1-(R, S)): 22; Number of unhatched larvae 4 days after insecticide delivery, Replicate 3 ([2]; listed as 1-(R, S)): 23 |
| C[C@@H](COS(=O)OCCF)Oc1ccc(Cl)cc1Cl (stereo partly drawn) [1-(S,R)] | 59.57 | 76.09 | 19 | 11 | 35.29 | 31.25 | 33 | 44 | 2.56 | 0.00 | 76 | 64 |  |  | strong inhibitory rate | 82.92 | 87.32 | 82.96 | 78.48 | Hatching rate (%), Replicate 1 ([2]; listed as 1-(S, R)): 62.30%; Hatching rate (%), Replicate 2 ([2]; listed as 1-(S, R)): 63.08%; Hatching rate (%), Replicate 3 ([2]; listed as 1-(S, R)): 60.34%; Number of unhatched larvae 4 days after insecticide delivery, Replicate 1 ([2]; listed as 1-(S, R)): 23; Number of unhatched larvae 4 days after insecticide delivery, Replicate 2 ([2]; listed as 1-(S, R)): 24; Number of unhatched larvae 4 days after insecticide delivery, Replicate 3 ([2]; listed as 1-(S, R)): 23 |
| C[C@@H](COS(=O)OCCF)Oc1ccc(Cl)cc1Cl (stereo partly drawn) [1-(S,S)] | 50.88 | 38.98 | 28 | 36 | 0.00 | 9.72 | 70 | 65 | 0.00 | 0.00 | 75 | 68 | excellent inhibitory effects | good inhibitory activities | strong inhibitory rate | 97.35 | 99.38 | 95.02 | 97.64 | Hatching rate (%), Replicate 1 ([2]; listed as 1-(S, S)): 23.73%; Hatching rate (%), Replicate 2 ([2]; listed as 1-(S, S)): 26.15%; Hatching rate (%), Replicate 3 ([2]; listed as 1-(S, S)): 20.69%; Number of unhatched larvae 4 days after insecticide delivery, Replicate 1 ([2]; listed as 1-(S, S)): 45; Number of unhatched larvae 4 days after insecticide delivery, Replicate 2 ([2]; listed as 1-(S, S)): 48; Number of unhatched larvae 4 days after insecticide delivery, Replicate 3 ([2]; listed as 1-(S, S)): 46 |
